From US9242984B2, “Pyrazolyl derivatives as Syk inhibitors” (Merck Sharp & Dohme Corp., priority 2012, dated 2016)
pIC50: −log10 of the molar value.

Molecular target: T1, recombinant human Syk (GST-hSyk fusion protein) (Homo sapiens, UniProt P43405)
T1 construct: purchased Carna Biosciences 08-176
Assay: Homogeneous Time-Resolved Fluorescence (HTRF) assay for the recombinant human Syk enzyme
Format: biochemical
Settings: IC50 class; 10-dose titration, 25 μM ATP; read-out: rhSYK Activity
Procedure, shortened: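 GST-hSyk (5 pM) preincubated 10 min with compound (0.1% DMSO) in 15 mM Tris-HCl pH 7.5, 2 mM DTT; reaction started with 250 nM biotinylated peptide, 5 mM Mg, 25 μM ATP, 45 min, room temperature. EDTA quench, Eu-anti-phosphotyrosine/SA-APC HTRF read after 30 min; IC50 from 10-dose titration (10 μM–0.508 nM), four-parameter fit.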

Row | pIC50 | SMILES
1 | 6.00 to 7.00 | CCOC(=O)CCc1cnn(-c2cc(C)cc(Nc3nccc(C)n3)c2)c1 [Example 19.6, Ethyl 3-(1-{3-methyl-5-[(4-methyl-pyrimidin-2-yl)amino]-phenyl}-1H-pyrazol-4-yl)propanoate]
2 | 6.00 to 7.00 | Cc1cc(Nc2nccc(C(F)(F)F)n2)cc(-n2cc(C3(O)CCC(C(=O)O)CC3)cn2)c1 (stereo not drawn) [Example 19.10, 4-hydroxy-4-[1-(3-methyl-5-{[4-(trifluoromethyl)pyrimidin-2-yl]amino}phenyl)-1H-pyrazol-4-yl]cyclohexanecarboxylic acid]
3 | ≥ 7.00 | Cc1cc(Nc2nccc(C(F)(F)F)n2)cc(-n2cc(C(C)(O)[C@H]3CC[C@H](C(=O)O)CC3)cn2)c1 (stereo partly drawn) [Example 19.12, trans-4-{1-hydroxy-1-[1-(3 methyl-5-{[4-(trifluoromethyl)pyrimidin-2-yl]amino}phenyl)-1H-pyrazol-4-yl]ethyl}cyclohexanecarboxylic acid]
4 | ≥ 7.00 | Cc1cc(Nc2nccc(C(F)(F)F)n2)cc(-n2cc(C(C)(O)[C@H]3CC[C@H](C(=O)O)CC3)cn2)c1 (stereo partly drawn) [Example 19.13, trans-4-{1-hydroxy-1-[1-(3-methyl-5-{[4-(trifluoromethyl)pyrimidin-2-yl]amino}phenyl)-1H-pyrazol-4-yl]ethyl}cyclohexanecarboxylic acid]
5 | ≥ 7.00 | Cc1cc(Nc2nccc(C(F)(F)F)n2)cc(-c2cnn(CC(C)(O)CC#N)c2)c1 (stereo not drawn) [Example 20.2, 3-hydroxy-3-methyl-4-[4-(3-methyl-5-{[4-(trifluoromethyl)pyrimidin-2-yl]amino}phenyl)-1H-pyrazol-1-yl]butanenitrile]
6 | ≥ 7.00 | Cc1cc(Nc2cc(C(F)(F)F)ccn2)nc(-c2cnn(CC(C)(O)CC#N)c2)c1 (stereo not drawn) [Example 20.4, 3-hydroxy-3-methyl-4-[4-(4-methyl-6-{[4-(trifluoromethyl)pyridin-2-yl]amino}pyridin-2-yl)-1H-pyrazol-1-yl]butanenitrile]
7 | ≥ 7.00 | Cc1cc(Nc2ncc(F)c(C(F)F)n2)cc(-c2cnn(CC(C)(O)CC#N)c2)c1 (stereo not drawn) [Example 20.5, 4-[4-(3-{[4-(difluoromethyl)-5-fluoropyrimidin-2-yl]amino}-5-methylphenyl)-1H-pyrazol-1-yl]-3-hydroxy-3-methylbutanenitrile]
8 | ≥ 7.00 | Cc1cc(Nc2ncc(F)c(C(F)F)n2)cc(-c2cnn(CC(C)(O)CC#N)c2)c1 (stereo not drawn) [Example 20.6, 4-[4-(3-{[4-(difluoromethyl)-5-fluoropyrimidin-2-yl]amino}-5-methylphenyl)-1H-pyrazol-1-yl]-3-hydroxy-3-methylbutanenitrile]
9 | ≥ 7.00 | Cc1cc(Nc2nccc(C(F)F)n2)cc(-c2cnn(CC(C)(O)CC#N)c2)c1 (stereo not drawn) [Example 20.7, 4-[4-(3-{[4-(difluoromethyl)pyrimidin-2-yl]amino}-5-methylphenyl)-1H-pyrazol-1-yl]-3-hydroxy-3-methylbutanenitrile]
10 | ≥ 7.00 | Cc1cc(Nc2nccc(C(C)(F)F)n2)cc(-c2cnn(CC(C)(O)CC#N)c2)c1 (stereo not drawn) [Example 20.9, 4-[4-(3-{[4-(1,1-difluoroethyl)pyrimidin-2-yl]amino}-5-methylphenyl)-1H-pyrazol-1-yl]-3-hydroxy-3-methylbutanenitrile]
11 | ≥ 7.00 | Cc1cc(Nc2nccc(C(C)(F)F)n2)cc(-c2cnn(CC(C)(O)CC#N)c2)c1 (stereo not drawn) [Example 20.10, 4-[4-(3-{[4-(1,1-difluoroethyl)pyrimidin-2-yl]amino}-5-methylphenyl)-1H-pyrazol-1-yl]-3-hydroxy-3-methylbutanenitrile]
12 | ≥ 7.00 | CC(=O)C(C)n1cc(-c2cc(C)cc(Nc3nccc(C(F)F)n3)c2)cn1 (stereo not drawn) [Example 21.3, 3-[4-(3-{[4-(difluoromethyl)pyrimidin-2-yl]amino}-5-methylphenyl)-1H-pyrazol-1-yl]butan-2-one]
13 | ≥ 7.00 | Cc1cc(Nc2cc(C(F)(F)F)ccn2)nc(-c2cnn(CC(C)(O)CO)c2)c1 (stereo not drawn) [Example 21.4, 2-methyl-3-[4-(4-methyl-6-{[4-(trifluoromethyl)pyridin-2-yl]amino}pyridin-2-yl)-1H-pyrazol-1-yl]propane-1,2-diol]
14 | ≥ 7.00 | Cc1cc(Nc2cc(C(F)(F)F)ccn2)nc(-c2cnn(CC(C)(O)CO)c2)c1 (stereo not drawn) [Example 21.5, 2-methyl-3-[4-(4-methyl-6-{[4-(trifluoromethyl)pyridin-2-yl]amino}pyridin-2-yl)-1H-pyrazol-1-yl]propane-1,2-diol]

Further lines, the molecule ahead of its results:

Row | SMILES | pIC50
15 | CCOC(=O)CCc1cnn(-c2cc(C)cc(Nc3nccc(OC)n3)c2)c1 [Example 19.5, Ethyl 3-(1-{3-[(4-methoxypyrimidin-2-yl)amino]-5-methylphenyl}-1H-pyrazol-4-yl)propanoate] | 6.00 to 7.00
16 | Cc1cc(Nc2nccc(C(F)(F)F)n2)cc(-n2cc(C3(O)CCC(C(=O)O)CC3)cn2)c1 (stereo not drawn) [Example 19.11, 4-hydroxy-4-[1-(3-methyl-5-{[4-(trifluoromethyl)pyrimidin-2-yl]amino}phenyl)-1H-pyrazol-4-yl]cyclohexanecarboxylic acid] | ≥ 7.00
17 | Cc1cc(Nc2nccc(C(F)(F)F)n2)cc(-n2cc(C3(O)CCC(C(=O)O)C(C)(C)C3)cn2)c1 (stereo not drawn) [Example 19.14, 4-hydroxy-2,2-dimethyl-4-[1-(3-methyl-5-{[4-(trifluoromethyl)pyrimidin-2-yl]amino}phenyl)-1H-pyrazol-4-yl]cyclohexanecarboxylic acid] | 6.00 to 7.00
18 | Cc1cc(Nc2nccc(C(F)(F)F)n2)cc(-n2cc(C3(O)CCC(C(=O)O)C(C)(C)C3)cn2)c1 (stereo not drawn) [Example 19.15, 4-hydroxy-2,2-dimethyl-4-[1-(3-methyl-5-{[4-(trifluoromethyl)pyrimidin-2-yl]amino}phenyl)-1H-pyrazol-4-yl]cyclohexanecarboxylic acid] | 6.00 to 7.00
19 | Cc1cc(Nc2nccc(C(F)(F)F)n2)cc(-c2cnn(CC(C)(O)CC#N)c2)c1 (stereo not drawn) [Example 20.3, 3-hydroxy-3-methyl-4-[4-(3-methyl-5-{[4-(trifluoromethyl)pyrimidin-2-yl]amino}phenyl)-1H-pyrazol-1-yl]butanenitrile] | ≥ 7.00
20 | Cc1cc(Nc2nccc(C(F)F)n2)cc(-c2cnn(CC(C)(O)CC#N)c2)c1 (stereo not drawn) [Example 20.8, 4-[4-(3-{[4-(difluoromethyl)pyrimidin-2-yl]amino}-5-methylphenyl)-1H-pyrazol-1-yl]-3-hydroxy-3-methylbutanenitrile] | ≥ 7.00
21 | Cc1cc(Nc2nccc(C(F)F)n2)cc(-c2cnn(CC(C)(O)C(C)(C)O)c2)c1 (stereo not drawn) [Example 21.6, 1-[4-(3-{[4-(difluoromethyl)pyrimidin-2-yl]amino}-5-methylphenyl)-1H-pyrazol-1-yl]-2,3-dimethylbutane-2,3-diol] | ≥ 7.00
22 | Cc1cc(Nc2nccc(C(F)F)n2)cc(-c2cnn(CC(C)(O)C(C)(C)O)c2)c1 (stereo not drawn) [Example 21.7, 1-[4-(3-{[4-(difluoromethyl)pyrimidin-2-yl]amino}-5-methylphenyl)-1H-pyrazol-1-yl]-2,3-dimethylbutane-2,3-diol] | ≥ 7.00
23 | Cc1cc(Nc2nccc(C(F)F)n2)cc(-c2cnn(C(C)C(C)(O)CO)c2)c1 (stereo not drawn) [Example 22.3, 3-[4-(3-{[4-(difluoromethyl)pyrimidin-2-yl]amino}-5-methylphenyl)-1H-pyrazol-1-yl]-2-methylbutane-1,2-diol] | ≥ 7.00
24 | Cc1cc(Nc2nccc(C(C)(F)F)n2)cc(-c2cnn(CC(C)(O)C(C)(C)O)c2)c1 (stereo not drawn) [Example 22.4, 1-[4-(3-{[4-(1,1-difluoroethyl)pyrimidin-2-yl]amino}-5-methylphenyl)-1H-pyrazol-1-yl]-2,3-dimethylbutane-2,3-diol] | ≥ 7.00
